Laboratory results reported in patent US6898455B2, “Method for providing optimal drug dosage” (The McLean Hospital Corporation, priority 1999, dated 2005).

Assays:
[1] = test system: regional brain metabolism; conditions: cited from earlier work; for effect of chronic treatment on regional brain metabolism (PET): adult ADHD patients, Matochik et al. 1994
adult ADHD subjects = conditions: i.v., Ernst et al. 1998; cited from earlier work
[2] = test system: cerebellar vermis of boys with ADHD; test: T2 relaxometry (fMRI) of the cerebellar vermis after one week of daily treatment; format: in vivo, human; conditions: for decrease in vermal T2-RT relative to placebo (average): three least active boys with ADHD
Method: (§1) In one particular embodiment, T2 relaxometry was used to indirectly assess blood volume in the cerebellum (hemispheres and midline vermis) of ten ADHD boys treated continuously for one week with placebo and three different doses of MPH. […] Following each week of treatment, and within 1-3 hours of their afternoon dose, testing for drug efficacy was performed using objective measures of activity.
Ten boys with ADHD (9.3±1.6 yr), and six healthy comparison subject boys (10.2±1.5 yr) were studied. Children with ADHD were screened using structured diagnostic interview (the Schedule for Affective Disorders and Schizophrenia for School-Age Children—Epidemiologic Version, “K-SADS-E”) and included if they met criteria for ADHD, and had at least 6 of 9 symptoms of inattention or hyperactivity-impulsivity. Children then took part in a triple blind (parent, child, rater), randomized, placebo-controlled study on the effects of methylphenidate (0, 0.5, 0.8, 1.5 mg/kg/day in two divided doses) on activity and fMRI. Children were treated continuously for one week with placebo or specific dose of methylphenidate. They were tested on day seven for drug response using objective measures of activity immediately following fMRI.
On test days, parents were instructed to give the afternoon dose 1 hour prior to their MRI appointment. Medication administration was assessed at each visit to insure that time between ingestion and testing were held constant for each subject throughout the study.
During each examination, 3 categories of images were obtained: (1) Scout images (typically T1-weighted sagittal images); (2) High resolution T1 matched axial images through the ten planes for which maps of T2 were generated; and (3) 32 spin echo, echoplanar image sets, with TE incremented by 4 msec in each consecutive image set (e.g. TE (1)=32 msec, TE (2)=36 msec, . . . TE (32)=156 msec) through the same ten axial planes ([…], Slice thickness=7 mm with a 3 mm skip, in-plane resolution=3.125 mm×3.125 mm, FOV=200 mm). The 32 TE-stepped images were then transferred to an off-line workstation and corrected for in plane motion using a modification of the DART image registration algorithm.
Values of T2 (x, y) and S (TE=0, x, y) were then calculated on a pixel-wise basis, assuming exponential decay, i.e. 1n [S (x, y, n)]=1n [S (TE=0), x, y]−TE (n)/T2 (x, y) where (x, y) describe the location of the pixel; n characterizes the echo number, from 1 to 32; and S is the image signal intensity. Linear least-squares regression was used to calculate a single T2 relaxation time measure for each pixel (x, y). Calculations of regional T2 relaxation time were made for regions of interest (ROI) drawn manually under the guidance of conventional T1-wighted matched MRI images in 2 to 4 slices through the cerebellum using anatomic boundaries observed in T1-weighted, preliminary T2-RT maps, and an atlas of the cerebellum. ROI slice selections were based on an assessment of the presence of cerebral spinal fluid in order to minimize partial volume artifacts, which result in abnormally elevated T2 relaxation times (values>100 msec were rejected). Sixteen voxel ROI's in the vermis were conservatively limited to square regions ([…]), to avoid encroaching into ventricular space and to provide consistency between slices and subjects.
FIGS. 7A and 7B show representative cerebellar ROIs including the vermis V and the left and right cerebella C. Delineation of regions and analysis of imaging data were performed on coded images, by an analyst very familiar with cerebellar anatomy who was blind to the identity, diagnosis, and treatment condition of the subject.

[3] = test system: cerebellar hemispheres of boys with ADHD; test: T2 relaxometry (fMRI) of the cerebellar hemispheres after one week of daily treatment; format: in vivo, human; conditions: Dose F=0.88, p>0.4; Dose x Activity F=0.47, p>0.7
Method: as §1
Ten boys with ADHD (9.3±1.6 yr), and six healthy comparison subject boys (10.2±1.5 yr) were studied. Children with ADHD were screened using structured diagnostic interview (the Schedule for Affective Disorders and Schizophrenia for School-Age Children—Epidemiologic Version, “K-SADS-E”) and included if they met criteria for ADHD, and had at least 6 of 9 symptoms of inattention or hyperactivity-impulsivity. […]
On test days, parents were instructed to give the afternoon dose 1 hour prior to their MRI appointment. Medication administration was assessed at each visit to insure that time between ingestion and testing were held constant for each subject throughout the study. […]
Values of T2 (x, y) and S (TE=0, x, y) were then calculated on a pixel-wise basis, assuming exponential decay, i.e. 1n [S (x, y, n)]=1n [S (TE=0), x, y]−TE (n)/T2 (x, y) where (x, y) describe the location of the pixel; n characterizes the echo number, from 1 to 32; and S is the image signal intensity. […]

[4] = test system: putamen of children with ADHD; test: T2 relaxometry of the putamen, blinded placebo-controlled daily treatment; format: in vivo, human; conditions: p=0.006
Excerpt: (§2) With this particular arrangement, an apparatus for indirectly assessing blood volume in the striatum (caudate and putamen and cerebellum) under steady-state conditions and for non-invasively diagnosing ADHD is provided. […] In one study eleven boys with ADHD had higher T2 relaxation times than six non-ADHD boys. The probability of this occurring by chance is 0.8%. The relaxation times correlated with the child's capacity to sit still, and their accuracy in performing a computerized attention task. Product-moment correlation coefficients (denoted r) for each of the above activities as well as with a probability of finding this occurrence by chance (denoted p) were computed using conventional techniques. […] It was discovered that ADHD symptoms may be closely tied to functional abnormalities in the putamen and cerebellum which are predominantly involved in the regulation and coordination of motoric behavior. […]
(§3) Turning now to FIG. 2, processing begins in steps 40 and 42 in which after positioning subjects to be tested (e.g. children or other persons possibly having brain dysfunction) in a scanning region of an MRI system of the type described above in conjunction with FIG. 1, and instructing the subjects to remain as still as possible, images of particular regions of interest (ROI) are acquired by perturbing the magnetic field in the subject and taking readings at particular times. […]

[5] = test system: caudate or thalamus of children with ADHD; test: T2 relaxometry of caudate and thalamus, blinded placebo-controlled daily treatment; format: in vivo, human
Excerpt: as §2, §3

[6] = test system: cerebellum of the most hyperactive ADHD boys; test: T2 relaxometry of the cerebellum, blinded placebo-controlled daily treatment (summary study); format: in vivo, human; conditions: eight of the most hyperactive boys; F3,21=5.011, p=0.0089
Excerpt: With this particular arrangement, an apparatus for indirectly assessing blood volume in the striatum (caudate and putamen and cerebellum) under steady-state conditions and for non-invasively diagnosing ADHD is provided. […] In one study eleven boys with ADHD had higher T2 relaxation times than six non-ADHD boys. The probability of this occurring by chance is 0.8%. The relaxation times correlated with the child's capacity to sit still, and their accuracy in performing a computerized attention task. Product-moment correlation coefficients (denoted r) for each of the above activities as well as with a probability of finding this occurrence by chance (denoted p) were computed using conventional techniques. […] It was discovered that ADHD symptoms may be closely tied to functional abnormalities in the putamen and cerebellum which are predominantly involved in the regulation and coordination of motoric behavior. […] It should also be appreciated that the apparatus and technique of the present invention may be equally applied to other brain regions (or even other organs) and may be useful for diagnosing conditions other than ADHD.
Referring now to FIG. 5, a T2 relaxation time image of the brain and cerebellum is shown. Circumscribed ROIs are illustrated for the cerebellar vermis V as well as, right R and left L cerebellar hemispheres. […]

[7] = test system: putamen of children with ADHD; conditions: stated as known; cited from earlier work

C[C@H](N)Cc1ccccc1 [dextroamphetamine]
effect of chronic treatment on regional brain metabolism (PET) [1]: no consistent effect | effect on global or regional metabolic rates ([1]; i.v., adult ADHD subjects, Ernst et al. 1998): no consistent effect | effect on attention (adult ADHD subjects): robust effects on attention

COC(=O)C(c1ccccc1)C1CCCCN1 (stereo not drawn) [methylphenidate]
increase in vermal T2-RT relative to placebo ([2]; high dose (1.5 mg/kg/day, one week), seven hyperactive ADHD boys): 5.1% | decrease in vermal T2-RT relative to placebo (average) ([2]; high dose (1.5 mg/kg/day, one week)): 3.9% | group effect (hyperactive vs non-hyperactive boys) on percent change in vermis T2-RT ([2]; high dose, F=15.98, df=1, 8, p=0.004): significant group effect | effect size (Cohen d) of the medication-induced change in T2-RT ([2]; highest dose, hyperactive subjects, 95% CI in brackets): 2.13 (95% CI, 0.82-3.44) | effect of moderate and high doses on T2-RT (direction by basal activity) ([2]; increase in the most active ADHD children, reduction in those not objectively hyperactive): increased T2-RT in a rate-dependent manner | increase in vermal T2-RT relative to placebo ([2]; intermediate dose (0.8 mg/kg/day, one week), seven hyperactive ADHD boys): 2.1% | decrease in vermal T2-RT relative to placebo (average) ([2]; intermediate dose (0.8 mg/kg/day, one week)): 3.5% | group effect (hyperactive vs non-hyperactive boys) on percent change in vermis T2-RT ([2]; intermediate dose, F=6.75, df=1, 8, p=0.04): significant group effect | increase in vermal T2-RT relative to placebo ([2]; low dose (0.5 mg/kg/day, one week), seven boys at least 20% more active than the most active comparison subject): 1.2% | decrease in vermal T2-RT relative to placebo (average) ([2]; low dose (0.5 mg/kg/day, one week)): 1.3% | group effect (hyperactive vs non-hyperactive boys) on percent change in vermis T2-RT ([2]; low dose, F=0.63, df=1, 8, p=0.63): non-significant group effect | effect of dose on cerebellar or vermal T2-RT, repeated-measures ANOVA without covariate ([2]; ten ADHD boys, F=1.167, df=3, 27, p=0.34): failed to reveal any significant effect of dose | effect of treatment on vermal T2-RT, analysis of covariance with motor activity ([2]; ten ADHD boys, F=4.85, df=3, 24, p=0.009, effect of dose linear): robust effect | effect of treatment on T2-RT in the adjacent cerebellar hemispheres [3]: No effect | effect on relaxation times in the putamen [4]: significantly altered | change of relaxation times in caudate or thalamus [5]: nor did relaxation times in these regions change | effect on relaxation times in the cerebellum [6]: dose-dependently altered | effect of daily high-dose treatment on T2-RT in the putamen [7]: changed T2-RT in the putamen | effect of chronic treatment on regional brain metabolism (PET) [1]: no consistent effect | effect on frontotemporal metabolism ([1]; subjects with high availability of DA D2 receptors, Volkow et al. 1997): increased frontotemporal metabolism | effect on metabolism ([1]; subjects with low availability of D2 receptors, Volkow et al. 1997): decreased metabolism
